Measurements published in patent US8779154B2, “Fused ring compounds for inflammation and immune-related uses” (priority 2006, dated 2014).
pIC50: −log10 of the molar value.

tested on: IL-2 production; experiment: Inhibition of IL-2 production in PHA-activated Jurkat cells (ELISA); type: cell-based; conditions: Homo sapiens, Jurkat, 20 h, PHA 2.5 μg/mL, IL-2 ELISA
Method: Jurkat cells were placed in a 96 well plate (0.5 million cells per well in 1% FBS medium) then a test compound of this invention was added at different concentrations. After 10 minutes, the cells were activated with PHA (final concentration 2.5 μg/mL) and incubated for 20 hours at 37° C. under CO2. The final volume was 200 μL. Following incubation, the cells were centrifuged and the supernatants collected and stored at −70° C. prior to assaying for IL-2 production. A commercial ELISA kit (IL-2 Eli-pair, Diaclone Research, Besancon, France) was used to detect production of IL-2, from which dose response curves were obtained. The IC50 value was calculated as the concentration at which 50% of maximum IL-2 production after stimulation was inhibited versus a non-stimulation control.

pIC50 | Compound
< 6.00 | Fc1cccc(F)c1CN(Cc1c(F)cccc1F)c1ccc2c(c1)CCCc1cnc(-c3cccnc3)nc1-2 [Compound 103]
6.30 to 6.60 | COc1ccc2c(c1)CCCc1nc(NC(=O)c3c(F)cccc3F)cnc1-2 [Compound 96]
7.00 to 7.52 | O=C(Nc1nc2c(s1)-c1ccc(-c3ncco3)cc1CCC2)c1c(F)cccc1F [Compound 76]
7.00 to 7.52 | O=C(Nc1ccc2c(c1)CCCc1sc(-c3cccnc3)nc1-2)c1c(F)cccc1F [Compound 155]
6.00 to 6.30 | O=C(Nc1ncc2c(n1)CCCc1cnc(-c3cccnc3)nc1-2)c1c(F)cccc1F [Compound 89]
7.00 to 7.52 | Cc1nc(-c2ccc3c(c2)CCCc2nc(NC(=O)c4c(F)cccc4F)sc2-3)no1 [Compound 60]
< 6.00 | Fc1cccc(F)c1CNc1ccc2c(c1)CCCc1cnc(-c3cccnc3)nc1-2 [Compound 104]
≥ 7.52 | Cn1nnnc1-c1ccc2c(c1)CCCc1nc(NC(=O)c3c(F)cccc3F)sc1-2 [Compound 78]
7.00 to 7.52 | O=C(Nc1ccc2c(c1)CCCc1cnc(-c3ccncc3)nc1-2)c1c(F)cccc1F [Compound 108]
6.00 to 6.30 | O=C(Nc1ccc2c(c1)CCCc1cnc(-c3ccccn3)nc1-2)c1c(F)cccc1F [Compound 106]
< 6.00 | O=C(Nc1nc2c(s1)-c1cc(-c3ccccn3)ccc1CCC2)c1c(F)cccc1F [Compound 82]
6.60 to 7.00 | O=C(Nc1nc2c(s1)-c1ccc(-n3ccnc3)cc1CCC2)c1c(F)cccc1F [Compound 74]

The next lines start with the compound.

Compound | pIC50
O=C(Nc1nc2c(s1)-c1nc(-c3cccnc3)sc1CCC2)c1c(F)cccc1F [Compound 88] | 6.00 to 6.30
N#Cc1ccc2c(c1)CCCc1nc(NC(=O)c3c(F)cccc3F)sc1-2 [Compound 59] | 7.00 to 7.52
COc1cccc2c1CCCc1nc(NC(=O)c3ccncc3C)ncc1-2 [Compound 92] | < 6.00
CC/N=C(/Nc1c(F)cccc1F)c1nc2c(s1)-c1cc(OC)ccc1CCC2 [Compound 149] | 6.60 to 7.00
COc1ccc2c(c1)-c1sc(/C(=N\O)Nc3c(F)cccc3F)nc1CCC2 [Compound 147] | 6.00 to 6.30
COc1cccc2c1CCCc1nc(NC(=O)c3c(F)cccc3F)sc1-2 [Compound 12] | ≥ 7.52
COc1cccc2c1CCCc1nc(C(=O)Nc3ccncc3C)sc1-2 [Compound 11] | < 6.00
COc1cccc2c1oc(=O)c1nc(NC(=O)c3c(F)cccc3F)sc12 [Compound 2] | < 6.00
CN1Cc2ccc(Br)cc2-c2sc(C(=O)Nc3c(F)cccc3F)nc2C1=O [Compound 140] | < 6.00
O=C(Nc1c(F)cccc1F)c1nc2c(s1)-c1cc(-c3cnco3)ccc1CCC2 [Compound 19] | ≥ 7.52
COc1ccc2c(c1)-c1sc(C(=O)Nc3ccncc3C)nc1CCC2 [Compound 10] | 6.30 to 6.60
O=C(Nc1c(F)cccc1F)c1nc2c(s1)-c1nc(-c3cccnc3)sc1CCC2 [Compound 133] | 7.00 to 7.52
O=C(Nc1c(F)cccc1F)c1nc2c(s1)-c1cc(-c3ccc(O)nc3)ccc1CCC2 [Compound 117] | 6.60 to 7.00
O=C(Nc1c(F)cccc1F)c1nc2c(s1)-c1cc(-c3ccc(F)nc3)ccc1CCC2 [Compound 120] | 6.30 to 6.60
O=C(Nc1c(F)cccc1F)c1nc2c(s1)-c1cc(-c3cncnc3)ccc1CCC2 [Compound 124] | 7.00 to 7.52
COc1ccc2c(c1)-c1sc(C(=O)Nc3c(F)cccc3F)nc1CCC2 [Compound 5] | ≥ 7.52
O=C(Nc1nc2c(=O)oc3ccc(C(F)(F)F)cc3c2s1)c1c(F)cccc1F [Compound 1] | < 6.00
O=C(Nc1c(F)cccc1F)c1nc2c(s1)-c1cc(-c3cn[nH]c3)ccc1CCC2 [Compound 128] | 6.60 to 7.00
O=c1oc2ccc(C(F)(F)F)cc2c2sc(NCc3c(F)cccc3F)nc12 [Compound 7] | < 6.00
COC(=O)c1ccc2c(c1)-c1sc(C(=O)Nc3c(F)cccc3F)nc1CCC2 [Compound 38] | ≥ 7.52
COC(=O)c1ccc2c(c1)CCCc1nc(NC(=O)c3c(F)cccc3F)sc1-2 [Compound 73] | 7.00 to 7.52
COc1ncccc1-c1ccc2c(c1)-c1sc(C(=O)Nc3c(F)cccc3F)nc1CCC2 [Compound 123] | ≥ 7.52
Cc1csc(-c2cccc3c2CCCc2nc(NC(=O)c4c(F)cccc4F)sc2-3)n1 [Compound 71] | 6.30 to 6.60
O=C1OCc2ccc(Br)cc2-c2sc(NC(=O)c3c(F)cccc3F)nc21 [Compound 139] | < 6.00
O=C(Nc1c(F)cccc1F)c1nc2c(s1)-c1cc(O)ccc1CCC2 [Compound 32] | 7.00 to 7.52
Cn1nnnc1-c1ccc2c(c1)-c1sc(C(=O)Nc3c(F)cccc3F)nc1CCC2 [Compound 39] | ≥ 7.52
COc1ccc2c(c1)-c1cnc(NC(=O)c3ccncc3C)nc1CCO2 [Compound 95] | < 6.00

same assay, conditions: Homo sapiens, PHA 2.5 μg/mL, 20 hours, IL-2 ELISA

Compound | pIC50
O=C(Nc1c(F)ccc([N+](=O)[O-])c1F)c1nc2c(s1)-c1cc([N+](=O)[O-])ccc1CCC2 [Compound 36] | 6.00 to 6.30
